Test results reported in patent US6737383B1, “Herbicidal oxadiazolidines” (priority 1999, dated 2004).

Columns and labels:
soybean = test: Test B pre/postemergence soybean; format: in vivo, Glycine max
Procedure, shortened: (§1)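 Herbicidal effect was estimated by eye on a ten-point control scale after plants spent twelve to sixteen days in a greenhouse following soil or foliar treatment. Foliar sprays targeted plants at one to four leaves; all doses were formulated in a non-phytotoxic solvent with surfactant.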

velvetleaf = test: Test B pre/postemergence velvetleaf; format: in vivo, Abutilon theophrasti
Procedure, shortened: as §1

corn = test: Test B pre/postemergence corn; format: in vivo, Zea mays
Procedure, shortened: as §1

bamyardgrass = test: Test B flood test barnyardgrass; format: in vivo, Echinochloa crus-galli; conditions: for Plant response rating, Barnyardgrass: scale 0 to 10, 0 is no effect, 10 is complete control; for Barnyardgrass plant response rating: scale of 0 to 10 where 0 is no effect and 10 is complete control
Procedure, shortened: (§2)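 Plants were grown to the 2-leaf stage before treatment with test chemical, then held in a greenhouse for twelve to sixteen days. Injury was visually rated against untreated controls on a 0–10 scale, where 0 is no effect and 10 is complete control.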

duck salad = test: Test B flood test duck salad; format: in vivo, Heteranthera limosa; conditions: for Plant response rating, Ducksalad: scale 0 to 10, 0 is no effect, 10 is complete control; for Ducksalad plant response rating: scale of 0 to 10 where 0 is no effect and 10 is complete control
Procedure, shortened: as §2

morningglory = test: Test B pre/postemergence morningglory; format: in vivo, Ipomoea hederacea
Procedure, shortened: as §1

wheat = test: Test B pre/postemergence wheat; format: in vivo, Triticum aestivum
Procedure, shortened: as §1

crabgrass = test: Test B pre/postemergence crabgrass; format: in vivo, Digitaria sanguinalis
Procedure, shortened: as §1

cocklebur = test: Test B pre/postemergence cocklebur; format: in vivo, Xanthium strumarium
Procedure, shortened: as §1

rice = test: Test B flood test rice; format: in vivo, Oryza sativa; conditions: for Rice plant response rating: scale of 0 to 10 where 0 is no effect and 10 is complete control
Procedure, shortened: as §2

sugar beet = test: Test B pre/postemergence sugar beet; format: in vivo, Beta vulgaris
Procedure, shortened: as §1

purple nutsedge = test: Test B pre/postemergence purple nutsedge; format: in vivo, Cyperus rotundus
Procedure, shortened: as §1

pigweed = test: Test B pre/postemergence pigweed; format: in vivo, Amaranthus retroflexus
Procedure, shortened: as §1

wild oat = test: Test B pre/postemergence wild oat; format: in vivo, Avena fatua
Procedure, shortened: as §1

giant foxtail = test: Test B pre/postemergence giant foxtail; format: in vivo, Setaria faberii
Procedure, shortened: as §1

rape = test: Test B pre/postemergence rape; format: in vivo, Brassica napus
Procedure, shortened: as §1

[1] = Postemergence, Rate 250 g/ha, scale 0 to 10, 0 is no effect, 10 is complete control
[2] = Postemergence, Rate 500 g/ha, scale of 0 to 10 where 0 is no effect and 10 is complete control
[3] = Preemergence, Rate 62 g/ha, scale 0 to 10 (0 no effect, 10 complete control)
[4] = Preemergence, Rate 125 g/ha, scale of 0 to 10 where 0 is no effect and 10 is complete control
[5] = Preemergence, Rate 250 g/ha, scale 0 to 10, 0 is no effect, 10 is complete control
[6] = Preemergence, Rate 500 g/ha, scale 0 to 10, 0 is no effect, 10 is complete control
[7] = Rate 62 g/ha, Postemergence, scale of 0 to 10 where 0 is no effect and 10 is complete control
[8] = Postemergence, Rate 125 g/ha, scale 0 to 10, 0 is no effect, 10 is complete control
[9] = Postemergence (flood test), Rate 125 g/ha
[10] = Postemergence section (flood test species), Rate 500 g/ha
[11] = Rate 62 g/ha, Postemergence (flood test species)
[12] = flood test species, listed under Postemergence, Rate 250 g/ha

CC(C)N(C(=O)n1oc(=O)n(CCCC(F)(F)F)c1=O)c1ccc(F)cc1 [Compound 398]
10: Plant response rating, Crabgrass (crabgrass; [4]) | Crabgrass plant response rating (crabgrass; [5]) | Crabgrass plant response rating (crabgrass; [6]) | Redroot pigweed plant response rating (pigweed; [5]) | Redroot pigweed plant response rating (pigweed; [6]) | Plant response rating, Giant foxtail (giant foxtail; [3]) | Plant response rating, Giant foxtail (giant foxtail; [4]) | Giant foxtail plant response rating (giant foxtail; [5]) | Giant foxtail plant response rating (giant foxtail; [6]) | Rape plant response rating (rape; [6])
2: Plant response rating, Velvetleaf (velvetleaf; [4]) | Morningglory plant response rating (morningglory; [7]) | Wheat plant response rating (wheat; [6]) | Crabgrass plant response rating (crabgrass; [7]) | Plant response rating, Redroot pigweed (pigweed; [3]) | Plant response rating, Rape (rape; [1]) | Rape plant response rating (rape; [2])
8: Corn plant response rating (corn; [6]) | Morningglory plant response rating (morningglory; [2]) | Wild oats plant response rating (wild oat; [6]) | Plant response rating, Giant foxtail (giant foxtail; [8]) | Rape plant response rating (rape; [5])
9: Plant response rating, Crabgrass (crabgrass; [1]) | Crabgrass plant response rating (crabgrass; [2]) | Plant response rating, Crabgrass (crabgrass; [3]) | Sugarbeets plant response rating (sugar beet; [6]) | Plant response rating, Giant foxtail (giant foxtail; [1]) | Giant foxtail plant response rating (giant foxtail; [2])
6: Soybean plant response rating (soybean; [2]) | Velvetleaf plant response rating (velvetleaf; [5])
7: Velvetleaf plant response rating (velvetleaf; [6])
5: Velvetleaf plant response rating (velvetleaf; [2]) | Redroot pigweed plant response rating (pigweed; [2]) | Plant response rating, Redroot pigweed (pigweed; [4])
0: Plant response rating, Soybean (soybean; [3]) | Plant response rating, Soybean (soybean; [4]) | Soybean plant response rating (soybean; [5]) | Soybean plant response rating (soybean; [6]) | Plant response rating, Velvetleaf (velvetleaf; [1]) | Plant response rating, Velvetleaf (velvetleaf; [3]) | Velvetleaf plant response rating (velvetleaf; [7]) | Plant response rating, Corn (corn; [8]) | Plant response rating, Corn (corn; [1]) | Corn plant response rating (corn; [2]) | Plant response rating, Corn (corn; [3]) | Plant response rating, Corn (corn; [4]) | Corn plant response rating (corn; [5]) | Corn plant response rating (corn; [7]) | Plant response rating, Barnyardgrass (bamyardgrass; [9]) | Barnyardgrass plant response rating (bamyardgrass; [10]) | Barnyardgrass plant response rating (bamyardgrass; [11]) | Plant response rating, Barnyardgrass (bamyardgrass; [12]) | Plant response rating, Ducksalad (duck salad; [9]) | Ducksalad plant response rating (duck salad; [10]) | Ducksalad plant response rating (duck salad; [11]) | Plant response rating, Ducksalad (duck salad; [12]) | Plant response rating, Morningglory (morningglory; [3]) | Plant response rating, Morningglory (morningglory; [4]) | Morningglory plant response rating (morningglory; [5]) | Morningglory plant response rating (morningglory; [6]) | Plant response rating, Wheat (wheat; [3]) | Plant response rating, Wheat (wheat; [4]) | Wheat plant response rating (wheat; [5]) | Wheat plant response rating (wheat; [7]) | Plant response rating, Cocklebur (cocklebur; [8]) | Plant response rating, Cocklebur (cocklebur; [1]) | Cocklebur plant response rating (cocklebur; [2]) | Plant response rating, Cocklebur (cocklebur; [3]) | Plant response rating, Cocklebur (cocklebur; [4]) | Cocklebur plant response rating (cocklebur; [5]) | Cocklebur plant response rating (cocklebur; [6]) | Cocklebur plant response rating (cocklebur; [7]) | Rice plant response rating (rice; [10]) | Rice plant response rating (rice; [11]) | Plant response rating, Rice (rice; flood test species, listed under Postemergence, Rate 250 g/ha, scale 0 to 10, 0 is no effect, 10 is complete control) | Plant response rating, Sugarbeets (sugar beet; [1]) | Sugarbeets plant response rating (sugar beet; [2]) | Plant response rating, Sugarbeets (sugar beet; [3]) | Sugarbeets plant response rating (sugar beet; [7]) | Plant response rating, Nutsedge (purple nutsedge; [1]) | Nutsedge plant response rating (purple nutsedge; [2]) | Plant response rating, Nutsedge (purple nutsedge; [3]) | Plant response rating, Nutsedge (purple nutsedge; [4]) | Nutsedge plant response rating (purple nutsedge; [5]) | Nutsedge plant response rating (purple nutsedge; [6]) | Nutsedge plant response rating (purple nutsedge; [7]) | Redroot pigweed plant response rating (pigweed; [7]) | Wild oats plant response rating (wild oat; [2]) | Plant response rating, Wild oats (wild oat; [3]) | Wild oats plant response rating (wild oat; [7]) | Plant response rating, Rape (rape; [3]) | Rape plant response rating (rape; [7])
3: Soybean plant response rating (soybean; [7]) | Plant response rating, Morningglory (morningglory; [1]) | Wheat plant response rating (wheat; [2]) | Plant response rating, Crabgrass (crabgrass; [8]) | Plant response rating, Redroot pigweed (pigweed; [1]) | Plant response rating, Wild oats (wild oat; [4]) | Wild oats plant response rating (wild oat; [5]) | Giant foxtail plant response rating (giant foxtail; [7]) | Plant response rating, Rape (rape; [4])
4: Plant response rating, Soybean (soybean; [1]) | Plant response rating, Sugarbeets (sugar beet; [4]) | Sugarbeets plant response rating (sugar beet; [5])
